Usually inhibition stands for the relative decrease from the control value, in per cent.

The values that follow come from patent US9546158B2, “2,5-substituted pyrimidines” (Grünenthal GmbH, priority 2014, dated 2017).

In this assay the target is T1, human PDE4B1 (Homo sapiens, UniProt Q07343).
T1 construct: host or cells: Sf9 cells
T1 sequence (Q07343 whole entry): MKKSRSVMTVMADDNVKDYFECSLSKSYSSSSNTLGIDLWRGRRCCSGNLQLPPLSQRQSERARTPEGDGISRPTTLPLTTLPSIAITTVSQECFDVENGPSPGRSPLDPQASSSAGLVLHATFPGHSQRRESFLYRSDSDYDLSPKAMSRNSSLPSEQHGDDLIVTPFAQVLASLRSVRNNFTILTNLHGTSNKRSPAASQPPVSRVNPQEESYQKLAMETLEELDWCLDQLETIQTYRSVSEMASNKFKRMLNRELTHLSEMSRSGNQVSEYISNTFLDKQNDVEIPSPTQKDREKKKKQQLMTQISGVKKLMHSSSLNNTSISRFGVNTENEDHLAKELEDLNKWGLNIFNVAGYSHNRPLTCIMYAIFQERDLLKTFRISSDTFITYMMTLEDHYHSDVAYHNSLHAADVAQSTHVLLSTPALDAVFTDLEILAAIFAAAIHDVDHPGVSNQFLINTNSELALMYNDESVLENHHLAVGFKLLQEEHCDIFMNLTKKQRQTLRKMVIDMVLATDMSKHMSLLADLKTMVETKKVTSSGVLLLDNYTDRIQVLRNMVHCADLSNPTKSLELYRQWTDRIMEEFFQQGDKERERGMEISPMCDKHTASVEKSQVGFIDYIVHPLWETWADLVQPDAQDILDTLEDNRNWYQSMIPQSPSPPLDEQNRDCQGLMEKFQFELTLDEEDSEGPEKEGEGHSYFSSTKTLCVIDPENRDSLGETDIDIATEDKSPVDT
Nature of the assay: cAMP HTRF assay to determine the activity of hPDE4B1. The format is biochemical. As to conditions: test substrate concentration of 1 μM, read-out: Inhibition of PDE4B, Inhibition in %. The protocol:
cAMP HTRF® Assay to Determine the Activity of hPDE4B1
The inhibiting effect of the compounds on the enzyme activity of human PDE4B1 was measured by the quantification of 5′-adenosine monophosphate (5′-AMP), which is formed from 3′,5′-cyclic adenosine monophosphate (cAMP). Human recombinant enzyme, expressed in Sf9 cells, and the HTRF (homogeneous time-resolved fluorescence) detection method were used in the assay.
The test compound or water (control) was mixed with the human recombinant PDE4B1 enzyme (4.8 U) in a buffer consisting of 44.4 mM tris-HCl, 5.28 mM MgCl2, 2.64 mM DTT and 0.044% Tween 20 (pH 7.8). After adding the cAMP enzyme substrate (final concentration 40 nM), the mixture was incubated for 30 minutes at room temperature. Then a fluorescence acceptor (Dye2 marked with cAMP), a fluorescence donor (anti-cAMP antibody marked with a europium cryptate) and the non-specific phosphodiesterase inhibitor IBMX (3-isobutyl-1-methylxanthine; final concentration 1 mM) were added. After 60 minutes the fluorescence transfer, which correlates with the amount of remaining cAMP, was measured with a microplate reader (Rubystar, BMG) at λex=337 nm, λem=620 nm and λem=665 nm. The enzyme activity was calculated from the quotient formed from the measured signal at 665 nm and that at 620 nm. The result was expressed as the percentage inhibition of enzyme activity of the control (without PDE4 inhibitor). The enzyme was omitted for measurement of the basal control. IC50 values (IC50=concentration causing a half-maximal inhibition of control specific activity) were derived from dose response measurements with eight different concentrations (n=2; N=1-3).
Literature: N. Saldou et al., Comparison of recombinant human PDE4 isoforms: interaction with substrate and inhibitors, Cell. Signal. Vol. 10, No. 6, 427-440, 1998
Background: Time-resolved FRET reads energy transfer from a long-lived donor to a nearby acceptor.
For `Cc1nn(-c2ncc(-c3ccccc3F)cn2)c2cc(C(=O)N3CCOCC3)ccc12` [Compound No. 1, (1-(5-(2-Fluorophenyl)pyrimidin-2-yl)-3-methyl-1H-indazol-6-yl)(morpholino)methanone], the inhibition at 1 µM was found to be 99%. To `O=C(c1ccc2c(C(F)(F)F)nn(-c3ncc(-c4ccccc4F)cn3)c2c1)N1CCOCC1` [Compound No. 2, (1-(5-(2-Fluorophenyl)pyrimidin-2-yl)-3-(trifluoromethyl)-1H-indazol-6-yl)(morpholino)methanone] belongs 102%; to `NC(=O)c1nn(-c2ncc(-c3ccccc3F)cn2)c2cc(C(=O)N3CCOCC3)ccc12` [Compound No. 3, 1-(5-(2-Fluorophenyl)pyrimidin-2-yl)-6-(morpholine-4-carbonyl)-1H-indazole-3-carboxamide], 83%. To `O=C(c1ccc2c(C3CC3)nn(-c3ncc(-c4ccccc4F)cn3)c2c1)N1CCOCC1` [Compound No. 4, (3-Cyclopropyl-1-(5-(2-fluorophenyl)pyrimidin-2-yl)-1H-indazol-6-yl)(morpholino)methanone] belongs 106%. The figure for `CS(=O)(=O)c1nn(-c2ncc(-c3ccccc3F)cn2)c2cc(C(=O)N3CCOCC3)ccc12` [Compound No. 5, (1-(5-(2-Fluorophenyl)pyrimidin-2-yl)-3-(methylsulfonyl)-1H-indazol-6-yl)(morpholino)methanone] is 96%; for `C[S+]([O-])c1nn(-c2ncc(-c3ccccc3F)cn2)c2cc(C(=O)N3CCOCC3)ccc12` (centres unmarked) [Compound No. 6, (1-(5-(2-Fluorophenyl)pyrimidin-2-yl)-3-(methylsulfinyl)-1H-indazol-6-yl)(morpholino)methanone] it is 97%. Take `C[S+]([O-])c1nn(-c2ncc(-c3ccccc3F)cn2)c2cc(C(=O)N3CCNCC3)ccc12` (centres unmarked) [Compound No. 8, (1-(5-(2-Fluorophenyl)pyrimidin-2-yl)-3-(methylsulfinyl)-1H-indazol-6-yl)(piperazin-1-yl)methanone]: the inhibition at 1 µM is 64%. As for `C[S+]([O-])c1nn(-c2ncc(-c3ccccc3)cn2)c2cc(C(=O)N3CCNCC3)ccc12` (centres unmarked) [Compound No. 9, (3-(Methylsulfinyl)-1-(5-phenylpyrimidin-2-yl)-1H-indazol-6-yl)(piperazin-1-yl)methanone], the inhibition at 1 µM is 46%.

`C[S+]([O-])c1nn(-c2ncc(-c3ccccc3)cn2)c2cc(C(=O)N3CCOCC3)ccc12` (centres unmarked) [Compound No. 11, (3-(Methylsulfinyl)-1-(5-phenylpyrimidin-2-yl)-1H-indazol-6-yl)(morpholino)methanone]: the inhibition at 1 µM is 115%.

As to `CS(=O)(=O)c1nn(-c2ncc(-c3ccccc3)cn2)c2cc(C(=O)N3CCOCC3)ccc12` [Compound No. 12, (3-(Methylsulfonyl)-1-(5-phenylpyrimidin-2-yl)-1H-indazol-6-yl)(morpholino)methanone], the inhibition at 1 µM is 62%. In the case of `C[S+]([O-])c1nn(-c2ncc(-c3ccccc3F)cn2)c2cc(C(=O)N3CC[C@@H](N)C3)ccc12` (stereo partly drawn) [Compound No. 13, ((R)-3-Aminopyrrolidin-1-yl)(1-(5-(2-fluorophenyl)pyrimidin-2-yl)-3-(methylsulfinyl)-1H-indazol-6-yl)methanone], the inhibition at 1 µM amounted to 108%.

In the case of `Cc1cccc(-c2cnc(-n3nc(C(C)O)c4ccc(C(=O)N5CCOCC5)cc43)nc2)c1` (centres unmarked) [Compound No. 18, (3-(1-Hydroxyethyl)-1-(5-(m-tolyl)pyrimidin-2-yl)-1H-indazol-6-yl)(morpholino)-methanone], the inhibition at 1 µM came out at 96%.

In the case of `CC(O)c1nn(-c2ncc(-c3ccccc3)cn2)c2cc(C(=O)N3CCOCC3)ccc12` (centres unmarked) [Compound No. 19, (3-(1-Hydroxyethyl)-1-(5-phenylpyrimidin-2-yl)-1H-indazol-6-yl)(morpholino)methanone], the inhibition at 1 µM stood at 112%. The figure for `CC(O)c1nn(-c2ncc(-c3ccccc3F)cn2)c2cc(C(=O)N3CCOCC3)ccc12` (centres unmarked) [Compound No. 20, (1-(5-(2-Fluorophenyl)pyrimidin-2-yl)-3-(1-hydroxyethyl)-1H-indazol-6-yl)(morpholino)methanone] is 102%; for `COc1ccc(F)c(-c2cnc(-n3nc(C(C)O)c4ccc(C(=O)N5CCOCC5)cc43)nc2)c1` (centres unmarked) [Compound No. 21, (1-(5-(2-Fluoro-5-methoxyphenyl)pyrimidin-2-yl)-3-(1-hydroxyethyl)-1H-indazol-6-yl)(morpholino)methanone] it is 112%. As for `CC(O)c1nn(-c2ncc(-c3cc(C#N)ccc3F)cn2)c2cc(C(=O)N3CCOCC3)ccc12` (centres unmarked) [Compound No. 22, 4-Fluoro-3-(2-(3-(1-hydroxyethyl)-6-(morpholine-4-carbonyl)-1H-indazol-1-yl)pyrimidin-5-yl)benzonitrile], the inhibition at 1 µM was found to be 112%. Consider `Cc1cccc(-c2cnc(-n3nc([S+](C)[O-])c4ccc(C(=O)N5CCOCC5)cc43)nc2)c1` (centres unmarked) [Compound No. 23, (3-(Methylsulfinyl)-1-(5-(m-tolyl)pyrimidin-2-yl)-1H-indazol-6-yl)(morpholino)methanone], for which the inhibition at 1 µM came out at 101%. As to `COc1ccc(F)c(-c2cnc(-n3nc([S+](C)[O-])c4ccc(C(=O)N5CCOCC5)cc43)nc2)c1` (centres unmarked) [Compound No. 24, (1-(5-(2-Fluoro-5-methoxyphenyl)pyrimidin-2-yl)-3-(methylsulfinyl)-1H-indazol-6-yl)(morpholino)methanone], the inhibition at 1 µM was determined as 100%.

For the molecule `C[S+]([O-])c1nn(-c2ncc(-c3cc(C#N)ccc3F)cn2)c2cc(C(=O)N3CCOCC3)ccc12` (centres unmarked) [Compound No. 25, 4-Fluoro-3-(2-(3-(methylsulfinyl)-6-(morpholine-4-carbonyl)-1H-indazol-1-yl)pyrimidin-5-yl)benzonitrile], the inhibition at 1 µM amounted to 85%. For `Cc1cccc(-c2cnc(-n3nc(S(C)(=O)=O)c4ccc(C(=O)N5CCOCC5)cc43)nc2)c1` [Compound No. 26, (3-(Methylsulfonyl)-1-(5-(m-tolyl)pyrimidin-2-yl)-1H-indazol-6-yl)(morpholino)methanone], the inhibition at 1 µM is 91%. Regarding `COc1ccc(F)c(-c2cnc(-n3nc(S(C)(=O)=O)c4ccc(C(=O)N5CCOCC5)cc43)nc2)c1` [Compound No. 27, (1-(5-(2-Fluoro-5-methoxyphenyl)pyrimidin-2-yl)-3-(methylsulfonyl)-1H-indazol-6-yl)(morpholino)methanone], the inhibition at 1 µM was 85%. As for `CS(=O)(=O)c1nn(-c2ncc(-c3cc(C#N)ccc3F)cn2)c2cc(C(=O)N3CCOCC3)ccc12` [Compound No. 28, 4-Fluoro-3-(2-(3-(methylsulfonyl)-6-(morpholine-4-carbonyl)-1H-indazol-1-yl)pyrimidin-5-yl)benzonitrile], the inhibition at 1 µM came to 86%.

For `O=C(c1cc2c(cn1)c(C1CC1)nn2-c1ncc(-c2ccccc2F)cn1)N1CCC1` [compound 35, Azetidin-1-yl(3-cyclopropyl-1-(5-(2-fluorophenyl)pyrimidin-2-yl)-1H-pyrazolo[4,3-c]pyridin-6-yl)methanone], the inhibition at 1 µM amounted to 59%. To `O=C(NC1CC1)c1cc2c(cn1)c(C1CC1)nn2-c1ncc(-c2ccccc2F)cn1` [compound 36, N,3-Dicyclopropyl-1-(5-(2-fluorophenyl)pyrimidin-2-yl)-1H-pyrazolo[4,3-c]pyridine-6-carboxamide] belongs 81%; to `CCN(C)C(=O)c1cc2c(cn1)c(C1CC1)nn2-c1ncc(-c2ccccc2F)cn1` [compound 37, 3-Cyclopropyl-N-ethyl-1-(5-(2-fluorophenyl)pyrimidin-2-yl)-N-methyl-1H-pyrazolo[4,3-c]pyridine-6-carboxamide], 73%; to `O=C(c1cc2c(cn1)c(C1CC1)nn2-c1ncc(-c2ccccc2F)cn1)N1CCCC1` [compound 38, (3-Cyclopropyl-1-(5-(2-fluorophenyl)pyrimidin-2-yl)-1H-pyrazolo[4,3-c]pyridin-6-yl)(pyrrolidin-1-yl)methanone], 85%. The figure for `CCN(CC)C(=O)c1cc2c(cn1)c(C1CC1)nn2-c1ncc(-c2ccccc2F)cn1` [compound 39, 3-Cyclopropyl-N,N-diethyl-1-(5-(2-fluorophenyl)pyrimidin-2-yl)-1H-pyrazolo[4,3-c]pyridine-6-carboxamide] is 67%; for `CN(CCO)C(=O)c1cc2c(cn1)c(C1CC1)nn2-c1ncc(-c2ccccc2F)cn1` [compound 40, 3-Cyclopropyl-1-(5-(2-fluorophenyl)pyrimidin-2-yl)-N-(2-hydroxyethyl)-N-methyl-1H-pyrazolo[4,3-c]pyridine-6-carboxamide] it is 40%.

Turning to `COCCNC(=O)c1cc2c(cn1)c(C1CC1)nn2-c1ncc(-c2ccccc2F)cn1` [compound 41, 3-Cyclopropyl-1-(5-(2-fluorophenyl)pyrimidin-2-yl)-N-(2-methoxyethyl)-1H-pyrazolo[4,3-c]pyridine-6-carboxamide], the inhibition at 1 µM came out at 69%.
